Where two headings read alike, the source gives them in different places.
Columns and labels:
Assay in all cases: biochemical
[1] = molecular target: T1, panel of 374 wild-type kinases (Homo sapiens, UniProt P08069); conditions: read-out: % Enzyme Activity (relative to DMSO controls), IGF1R
T1 construct: purchased Reaction Biology Corporation

[2] = molecular target: T2, panel of 374 wild-type kinases (Homo sapiens, UniProt P22455); conditions: for remaining activity at 5 µM: read-out: % Enzyme Activity (relative to DMSO controls), FGFR4
T2 construct: purchased Reaction Biology Corporation

[3] = molecular target: T3, panel of 374 wild-type kinases (Homo sapiens, UniProt P36507); conditions: read-out: % Enzyme Activity (relative to DMSO controls), MEK2
T3 construct: purchased Reaction Biology Corporation
T3 sequence (P36507 whole entry): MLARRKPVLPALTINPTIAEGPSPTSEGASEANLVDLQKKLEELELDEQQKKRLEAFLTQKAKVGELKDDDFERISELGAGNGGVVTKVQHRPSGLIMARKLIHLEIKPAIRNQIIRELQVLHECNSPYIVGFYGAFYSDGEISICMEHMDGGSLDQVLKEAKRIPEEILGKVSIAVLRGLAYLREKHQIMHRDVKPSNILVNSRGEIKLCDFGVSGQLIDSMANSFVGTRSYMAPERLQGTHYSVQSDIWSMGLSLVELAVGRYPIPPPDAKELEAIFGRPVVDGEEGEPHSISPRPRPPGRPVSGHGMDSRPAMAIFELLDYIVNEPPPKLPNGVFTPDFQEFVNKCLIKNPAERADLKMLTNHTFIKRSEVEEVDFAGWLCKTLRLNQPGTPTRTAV

[4] = molecular target: T4, panel of 374 wild-type kinases (Homo sapiens, UniProt P51617); conditions: read-out: % Enzyme Activity (relative to DMSO controls), IRAK1
T4 construct: purchased Reaction Biology Corporation
T4 sequence (P51617 whole entry): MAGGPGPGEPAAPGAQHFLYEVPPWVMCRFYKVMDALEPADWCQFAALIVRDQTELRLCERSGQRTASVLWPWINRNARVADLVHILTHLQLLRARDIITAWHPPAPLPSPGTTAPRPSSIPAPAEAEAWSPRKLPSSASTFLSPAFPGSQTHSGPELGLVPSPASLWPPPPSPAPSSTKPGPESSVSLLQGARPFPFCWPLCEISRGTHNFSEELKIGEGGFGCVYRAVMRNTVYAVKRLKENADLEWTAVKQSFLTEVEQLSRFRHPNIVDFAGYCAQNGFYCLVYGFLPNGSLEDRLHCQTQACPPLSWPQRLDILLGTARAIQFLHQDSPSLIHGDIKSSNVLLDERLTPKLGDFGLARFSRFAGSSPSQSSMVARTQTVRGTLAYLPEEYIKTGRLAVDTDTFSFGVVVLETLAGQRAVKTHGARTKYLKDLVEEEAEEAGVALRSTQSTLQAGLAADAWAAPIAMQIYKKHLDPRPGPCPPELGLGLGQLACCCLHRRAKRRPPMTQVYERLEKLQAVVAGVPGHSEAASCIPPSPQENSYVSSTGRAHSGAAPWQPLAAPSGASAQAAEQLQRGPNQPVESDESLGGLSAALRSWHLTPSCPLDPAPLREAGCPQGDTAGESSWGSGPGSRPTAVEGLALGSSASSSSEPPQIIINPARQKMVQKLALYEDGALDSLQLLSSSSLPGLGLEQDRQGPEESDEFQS

[5] = molecular target: T5, panel of 374 wild-type kinases (Homo sapiens, UniProt P51817); conditions: read-out: % Enzyme Activity (relative to DMSO controls), kinase PRKX
T5 construct: purchased Reaction Biology Corporation
T5 sequence (P51817 1-358): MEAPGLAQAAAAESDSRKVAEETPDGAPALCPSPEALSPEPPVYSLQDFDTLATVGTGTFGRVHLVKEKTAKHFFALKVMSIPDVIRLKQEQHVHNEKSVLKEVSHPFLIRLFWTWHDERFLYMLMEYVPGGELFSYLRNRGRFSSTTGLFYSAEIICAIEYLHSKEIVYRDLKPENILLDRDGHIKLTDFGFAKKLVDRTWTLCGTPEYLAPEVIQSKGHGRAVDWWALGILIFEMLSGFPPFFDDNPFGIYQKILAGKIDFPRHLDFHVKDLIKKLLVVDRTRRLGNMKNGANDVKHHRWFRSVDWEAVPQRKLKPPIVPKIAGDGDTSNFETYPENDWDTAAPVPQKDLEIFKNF

[6] = molecular target: T6, panel of 374 wild-type kinases (Homo sapiens, UniProt P53350); conditions: read-out: % Enzyme Activity (relative to DMSO controls), kinase PLK1
T6 construct: purchased Reaction Biology Corporation
T6 sequence (P53350 whole entry): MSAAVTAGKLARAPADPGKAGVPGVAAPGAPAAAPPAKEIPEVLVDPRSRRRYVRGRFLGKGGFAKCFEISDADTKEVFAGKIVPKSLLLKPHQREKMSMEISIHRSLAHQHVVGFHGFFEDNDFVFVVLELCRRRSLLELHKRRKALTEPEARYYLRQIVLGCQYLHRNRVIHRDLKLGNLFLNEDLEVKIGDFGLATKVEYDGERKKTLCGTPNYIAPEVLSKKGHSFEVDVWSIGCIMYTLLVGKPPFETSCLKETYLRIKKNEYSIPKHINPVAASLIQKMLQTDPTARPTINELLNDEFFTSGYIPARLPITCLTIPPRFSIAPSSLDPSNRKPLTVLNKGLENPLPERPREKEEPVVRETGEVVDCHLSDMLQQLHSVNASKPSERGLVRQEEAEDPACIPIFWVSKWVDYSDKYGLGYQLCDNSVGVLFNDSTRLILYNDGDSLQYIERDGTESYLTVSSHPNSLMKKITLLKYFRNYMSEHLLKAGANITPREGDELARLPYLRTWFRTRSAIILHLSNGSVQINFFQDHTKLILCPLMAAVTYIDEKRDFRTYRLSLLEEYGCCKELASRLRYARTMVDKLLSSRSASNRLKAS

[7] = molecular target: T7, panel of 374 wild-type kinases (Homo sapiens, UniProt Q00535)
T7 construct: purchased Reaction Biology Corporation
T7 sequence (Q00535 whole entry): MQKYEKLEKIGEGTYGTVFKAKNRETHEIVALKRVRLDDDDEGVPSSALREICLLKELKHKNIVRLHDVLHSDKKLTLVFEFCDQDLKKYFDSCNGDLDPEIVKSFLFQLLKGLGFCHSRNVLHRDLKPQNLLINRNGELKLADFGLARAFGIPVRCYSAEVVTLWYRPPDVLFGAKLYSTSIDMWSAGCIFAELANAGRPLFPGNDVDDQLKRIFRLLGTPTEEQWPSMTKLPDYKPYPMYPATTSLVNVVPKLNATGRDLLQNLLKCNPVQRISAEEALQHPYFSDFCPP

[8] = molecular target: T8, panel of 374 wild-type kinases (Homo sapiens, UniProt Q13233); conditions: read-out: % Enzyme Activity (relative to DMSO controls), MEKK1
T8 construct: purchased Reaction Biology Corporation

[9] = molecular target: T9, panel of 374 wild-type kinases (Homo sapiens, UniProt Q13627); conditions: read-out: % Enzyme Activity (relative to DMSO controls), DYRK1/DYRK1A
T9 construct: purchased Reaction Biology Corporation

[10] = molecular target: T10, panel of 374 wild-type kinases (Homo sapiens, UniProt Q15303); conditions: read-out: % Enzyme Activity (relative to DMSO controls), ERBB4/HER4
T10 construct: purchased Reaction Biology Corporation

[11] = molecular target: T11, panel of 374 wild-type kinases (Homo sapiens, UniProt Q6IQ55); conditions: read-out: % Enzyme Activity (relative to DMSO controls), kinase TTBK2
T11 construct: purchased Reaction Biology Corporation
T11 sequence (Q6IQ55 whole entry): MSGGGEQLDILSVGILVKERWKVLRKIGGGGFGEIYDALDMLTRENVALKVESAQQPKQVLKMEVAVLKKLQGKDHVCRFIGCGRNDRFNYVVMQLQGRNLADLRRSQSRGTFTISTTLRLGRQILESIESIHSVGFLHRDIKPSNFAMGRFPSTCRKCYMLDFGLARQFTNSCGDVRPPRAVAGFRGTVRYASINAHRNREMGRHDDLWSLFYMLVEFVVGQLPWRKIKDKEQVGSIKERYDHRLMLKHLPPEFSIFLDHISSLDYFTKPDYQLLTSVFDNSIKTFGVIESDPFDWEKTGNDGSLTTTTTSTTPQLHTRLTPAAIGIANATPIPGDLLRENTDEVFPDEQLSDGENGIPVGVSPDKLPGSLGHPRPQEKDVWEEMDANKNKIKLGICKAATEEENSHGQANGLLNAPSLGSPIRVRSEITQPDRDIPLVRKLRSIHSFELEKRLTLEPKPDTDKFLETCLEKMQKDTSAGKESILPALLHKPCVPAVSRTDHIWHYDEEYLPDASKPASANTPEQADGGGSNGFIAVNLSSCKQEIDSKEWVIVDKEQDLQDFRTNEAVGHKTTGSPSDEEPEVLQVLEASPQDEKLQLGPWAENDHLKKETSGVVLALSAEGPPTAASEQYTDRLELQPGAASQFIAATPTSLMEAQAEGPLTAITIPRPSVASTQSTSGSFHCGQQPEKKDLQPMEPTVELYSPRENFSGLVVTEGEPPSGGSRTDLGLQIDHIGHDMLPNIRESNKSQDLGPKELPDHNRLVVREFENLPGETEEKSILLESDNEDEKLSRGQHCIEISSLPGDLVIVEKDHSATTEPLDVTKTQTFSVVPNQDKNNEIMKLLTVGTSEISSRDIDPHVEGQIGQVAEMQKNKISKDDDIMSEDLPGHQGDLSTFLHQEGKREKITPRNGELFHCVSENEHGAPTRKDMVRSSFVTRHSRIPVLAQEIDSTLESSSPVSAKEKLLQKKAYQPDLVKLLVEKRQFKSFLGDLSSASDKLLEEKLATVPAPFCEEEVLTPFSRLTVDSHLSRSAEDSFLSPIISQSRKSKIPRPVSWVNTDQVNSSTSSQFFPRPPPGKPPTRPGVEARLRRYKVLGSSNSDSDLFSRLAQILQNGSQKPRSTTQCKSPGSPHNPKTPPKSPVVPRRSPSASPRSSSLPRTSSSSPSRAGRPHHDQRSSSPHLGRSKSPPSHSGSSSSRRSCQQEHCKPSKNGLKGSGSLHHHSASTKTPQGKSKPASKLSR

[12] = molecular target: T12, panel of 374 wild-type kinases (Homo sapiens, UniProt Q9Y2U5); conditions: read-out: % Enzyme Activity (relative to DMSO controls), MEKK2
T12 construct: purchased Reaction Biology Corporation
T12 sequence (Q9Y2U5 1-619): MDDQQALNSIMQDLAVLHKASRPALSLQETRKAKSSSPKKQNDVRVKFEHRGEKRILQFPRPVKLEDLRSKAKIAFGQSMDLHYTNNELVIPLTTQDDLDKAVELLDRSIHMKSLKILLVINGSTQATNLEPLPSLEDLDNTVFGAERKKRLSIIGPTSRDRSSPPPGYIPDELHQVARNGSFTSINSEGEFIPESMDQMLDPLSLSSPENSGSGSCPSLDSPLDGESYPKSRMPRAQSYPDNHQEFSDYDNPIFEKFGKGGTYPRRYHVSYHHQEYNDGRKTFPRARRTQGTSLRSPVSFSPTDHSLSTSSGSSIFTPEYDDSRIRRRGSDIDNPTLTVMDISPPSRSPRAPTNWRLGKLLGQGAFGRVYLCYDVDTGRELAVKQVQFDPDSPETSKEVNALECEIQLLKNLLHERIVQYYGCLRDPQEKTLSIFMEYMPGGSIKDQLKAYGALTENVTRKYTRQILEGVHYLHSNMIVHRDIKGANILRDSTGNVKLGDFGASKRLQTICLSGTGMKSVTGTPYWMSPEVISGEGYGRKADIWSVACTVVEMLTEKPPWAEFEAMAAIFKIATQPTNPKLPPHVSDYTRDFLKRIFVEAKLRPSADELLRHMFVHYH

[13] = molecular target: T13, panel of 374 wild-type kinases (Homo sapiens, UniProt Q9Y6M4); conditions: read-out: % Enzyme Activity (relative to DMSO controls), CK1g3
T13 construct: purchased Reaction Biology Corporation
T13 sequence (Q9Y6M4 whole entry): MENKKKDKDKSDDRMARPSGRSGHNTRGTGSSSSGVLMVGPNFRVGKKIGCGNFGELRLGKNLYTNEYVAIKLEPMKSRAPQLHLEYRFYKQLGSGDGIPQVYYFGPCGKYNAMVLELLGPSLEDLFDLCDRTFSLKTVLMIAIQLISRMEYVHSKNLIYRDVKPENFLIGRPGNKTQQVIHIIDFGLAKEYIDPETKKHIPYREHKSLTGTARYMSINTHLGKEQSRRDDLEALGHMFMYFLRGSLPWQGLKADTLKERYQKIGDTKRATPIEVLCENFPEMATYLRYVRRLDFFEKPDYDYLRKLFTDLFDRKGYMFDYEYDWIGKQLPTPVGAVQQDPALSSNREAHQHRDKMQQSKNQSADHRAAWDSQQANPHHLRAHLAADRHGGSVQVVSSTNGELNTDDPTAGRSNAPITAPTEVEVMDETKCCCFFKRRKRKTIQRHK

[14] = read-out: % Enzyme Activity (relative to DMSO controls), CDK5/P25
[15] = read-out: % Enzyme Activity (relative to DMSO controls), CDK5/p35

T1 sequence (P08069 31-1367): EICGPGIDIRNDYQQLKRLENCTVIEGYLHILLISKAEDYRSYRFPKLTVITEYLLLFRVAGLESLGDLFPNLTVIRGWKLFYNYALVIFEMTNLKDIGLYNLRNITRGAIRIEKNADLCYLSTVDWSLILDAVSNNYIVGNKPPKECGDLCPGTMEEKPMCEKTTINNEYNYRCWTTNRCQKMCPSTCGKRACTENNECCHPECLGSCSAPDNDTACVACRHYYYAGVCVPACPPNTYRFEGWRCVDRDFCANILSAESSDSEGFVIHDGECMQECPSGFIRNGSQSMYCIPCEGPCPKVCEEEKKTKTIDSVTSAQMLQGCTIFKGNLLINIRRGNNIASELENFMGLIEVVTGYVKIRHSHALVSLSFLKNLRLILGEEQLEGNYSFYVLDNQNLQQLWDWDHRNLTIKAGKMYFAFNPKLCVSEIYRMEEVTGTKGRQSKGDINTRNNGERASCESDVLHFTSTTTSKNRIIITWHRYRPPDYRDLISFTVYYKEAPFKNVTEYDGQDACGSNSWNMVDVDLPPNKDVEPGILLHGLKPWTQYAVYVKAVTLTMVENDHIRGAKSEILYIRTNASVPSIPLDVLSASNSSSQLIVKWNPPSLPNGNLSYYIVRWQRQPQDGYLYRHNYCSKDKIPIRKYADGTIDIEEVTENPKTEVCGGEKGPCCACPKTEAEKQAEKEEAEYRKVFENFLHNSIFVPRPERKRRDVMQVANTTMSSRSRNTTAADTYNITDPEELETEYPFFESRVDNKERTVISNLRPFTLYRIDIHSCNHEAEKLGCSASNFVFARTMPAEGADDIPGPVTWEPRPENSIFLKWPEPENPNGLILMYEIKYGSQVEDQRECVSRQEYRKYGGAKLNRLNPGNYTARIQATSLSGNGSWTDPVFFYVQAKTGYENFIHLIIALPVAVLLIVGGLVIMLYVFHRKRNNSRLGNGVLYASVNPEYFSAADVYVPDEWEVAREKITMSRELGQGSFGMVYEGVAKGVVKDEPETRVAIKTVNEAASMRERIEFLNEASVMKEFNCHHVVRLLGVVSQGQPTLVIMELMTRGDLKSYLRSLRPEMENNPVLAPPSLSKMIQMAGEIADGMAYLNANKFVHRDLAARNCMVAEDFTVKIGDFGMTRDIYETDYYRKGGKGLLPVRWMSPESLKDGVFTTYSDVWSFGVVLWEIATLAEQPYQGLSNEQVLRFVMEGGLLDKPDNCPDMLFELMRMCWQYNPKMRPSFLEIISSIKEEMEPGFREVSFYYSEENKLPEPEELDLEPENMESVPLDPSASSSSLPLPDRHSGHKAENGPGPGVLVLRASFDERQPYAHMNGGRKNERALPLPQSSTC

| SMILES | remaining activity at 5 µM [1] [%] | remaining activity at 5 µM [2] [%] | remaining activity at 5 µM [3] [%] | remaining activity at 5 µM [4] [%] | remaining activity at 5 µM [5] [%] | remaining activity at 5 µM [6] [%] | remaining activity at 5 µM [7, 14] [%] | remaining activity at 5 µM [7, 15] [%] | remaining activity at 5 µM [8] [%] | remaining activity at 5 µM [9] [%] | remaining activity at 5 µM [10] [%] | remaining activity at 5 µM [11] [%] | remaining activity at 5 µM [12] [%] | remaining activity at 5 µM [13] [%] | further results |
| --- | --- | --- | --- | --- | --- | --- | --- | --- | --- | --- | --- | --- | --- | --- | --- |
| O=C(Nc1cnn(-c2csc(C(=O)NC3COC3)c2)c1)Nc1ccccc1Cl [Compound 17, 4-(4-(3-(2-chlorophenyl)ureido)-1H-pyrazol-1-yl)-N-(oxetan-3-yl)thiophene-2-carboxamide] | 95.8 | 88.2 | 92.2 | 112 | 104 | 97 | 101 | 95.4 | 103 | 86 | 105 | 107 | 110 | 103 |  |
| O=C(Nc1cnn(-c2csc(C(=O)NC3COC3)c2)c1)Nc1c(F)cccc1Cl [Compound 25, 4-(4-(3-(2-chloro-6-fluorophenyl)ureido)-1H-pyrazol-1-yl)-N-(oxetan-3-yl)thiophene-2-carboxamide] | 94.9 | 99.6 | 90.6 | 107 | 91.5 | 95.5 | 88.2 | 94.3 | 98.7 | 75.1 | 102 | 104 | 80.1 | 92.6 |  |
| Cc1sc(C(=O)NC2COC2)cc1-n1cc(NC(=O)Nc2c(F)cccc2Cl)cn1 [Compound 27, 4-(4-(3-(2-chloro-6-fluorophenyl)ureido)-1H-pyrazol-1-yl)-5-methyl-N-(oxetan-3-yl)thiophene-2-carboxamide] |  |  |  |  |  |  |  |  |  |  |  |  |  |  | remaining activity at 10 µM ([1]; 10 uM): 102%; remaining activity at 10 µM ([2]; FGFR4, 10 uM, read-out: % Enzyme Activity (relative to DMSO controls)): 96.8%; remaining activity at 10 µM ([3]; 10 uM): 99.5%; remaining activity at 10 µM ([4]; 10 uM): 79.9%; remaining activity at 10 µM ([5]; 10 uM): 87.5%; remaining activity at 10 µM ([6]; 10 uM): 104%; remaining activity at 10 µM [7, 14]: 97.6%; remaining activity at 10 µM [7, 15]: 103%; remaining activity at 10 µM ([8]; 10 uM): 94.5%; remaining activity at 10 µM ([9]; 10 uM): 95.5%; remaining activity at 10 µM ([10]; 10 uM): 95%; remaining activity at 10 µM ([11]; 10 uM): 97.6%; remaining activity at 10 µM ([12]; 10 uM): 88.1%; remaining activity at 10 µM ([13]; 10 uM): 91.3% |
